Common to all, as to assay type: physicochemical
Data set [1] is described as follows: Critical wavelength (λcrit), approximate in-house measurement. The source says: As the precise test for critical wavelength was unable to be replicated exactly by the inventors due to the need for specialist equipment and a specific calibration of the spectrophotometer, these values are only approximate to a degree. […] This represents a highly useful result and so, compounds based around this benzoyl substitution pattern shown, are especially preferred.

A short description of a further data set: Photostability. The settings on record: Table 13B.
Data set [2] in a line: UV absorption properties (λmax, molar extinction coefficient ε, efficiency E 1%, 1 cm). As to conditions: for shoulder in the λmax column: Tables 5, 10, 13B.
[3] abbreviates: Table 13B, miscellaneous compounds.
[4] abbreviates: Table 13B, values in order of the λmax values.
Setting [5] is: Table 13B, values in order of the λmax values, in M-1 cm-1.
Where [6] appears, read: Table 9, C3-trifluoroacetylated N-aryl enamines.
The mark [7] stands for this setting: Table 10, bis and mono enamine compounds.
Setting [8] is: Table 11, compounds from mixed anhydrides.
The mark [9] stands for this setting: Table 12, 2-substituted compounds.

SMILES strings stand for the structures.

For the compound `CN1C=C(C(=O)c2ccc(N(C)CCCCCCN(C)c3ccc(C(=O)C4=CN(C(C)(C)C)CCC4(C)C)cc3)cc2)C(C)(C)CC1`, the λcrit in data set [1] (Table 13B) was found to be 364 nm. Further, the “Photostability (%)” value in the data set “Photostability” is on record as 22%.
Compound `CC1(C)CCN(C(C)(C)C)C=C1C(=O)/C=C/c1cccc(/C=C/C(=O)C2=CN(C(C)(C)C)CCC2(C)C)c1` showed a λmax in data set [2] (setting [3]) of 360 nm. Besides, in data set [2] (setting [4]), the “E (1%, 1 cm)” value was 395. This compound also displayed a ε in data set [2] (setting [5]) of 20388. This compound also came in with a λcrit in data set [1] (Table 13B) of 386 nm. For the same compound, the “Photostability (%)” value in the data set “Photostability” turned out to be 95%.
The like results for `CC1(C)CCN(C(C)(C)C)C=C1C(=O)c1ccc(F)cc1` were, in that order, 316 nm, 655, 20919, 346 nm and 75%.
The like results for `CC1(C)CCN(C(C)(C)C)C=C1C(=O)/C=C/c1ccc(C(=O)C2=CN(C(C)(C)C)CCC2(C)C)cc1` were, in that order, 360 nm, 564, 27646, 385 nm and 77%.
Compound `CCCCC(CC)CN(c1ccc(C(=O)C2=CN(C(C)(C)C)CCC2(C)C)cc1)c1ccc(C(=O)C2=CN(C(C)(C)C)CCC2(C)C)cc1` (stereo not shown) yielded a λmax in data set [2] (setting [3]) of 316 nm. In data set [2] (setting [4]), the “E (1%, 1 cm)” value came to 624. This compound displayed a ε in data set [2] (setting [5]) of 41598. For the same compound, the “shoulder in the λmax column” value in data set [2] is reported as roughly 340 nm. The compound also gave a λcrit in data set [1] (Table 13B) of 369 nm. For the same compound, in the data set “Photostability” (with octocrylene (+ Octo)), the “Photostability (%) + Octo” value is listed as 90%.
In the case of `CCCCC(CC)COC(=O)c1cc(/C=C/C(=O)C2=CN(C(C)(C)C)CCC2(C)C)ccc1/C=C/C(=O)C1=CN(C(C)(C)C)CCC1(C)C` (stereo not shown), the λmax in data set [2] (setting [3]) is reported as 378 nm. Also, in data set [2] (setting [4]), the “E (1%, 1 cm)” value is 460. The ε in data set [2] (setting [5]) came out at 30963. The compound also returned a λcrit in data set [1] (Table 13B) of 388 nm. In “Photostability”, the “Photostability (%)” value stood at 2%.
The like results for `CC(C)CN1C=C(C(=O)C(C)(C)C)C(C)(C)CC1` were, in that order, 309 nm, 1137, 28554, 327 nm and 60%.
Turning to `CCCCC(CC)COC(=O)CCC(=O)C1=CN(c2ccc(N3C=C(C(=O)CCC(=O)OCC(CC)CCCC)C(C)(C)CC3)cc2)CCC1(C)C` (stereo not shown), the λmax in data set [2] (setting [3]) is on record as 359 nm. Further, the “E (1%, 1 cm)” value in data set [2] (setting [4]) turned out to be 628. Besides, in data set [2] (setting [5]), the ε came out at 45301. This compound also registered a λcrit in data set [1] (Table 13B) of 379 nm. For the same compound, the “Photostability (%)” value in “Photostability” is on record as 52%.
For `CC1(C)CCN(c2ccc(N3C=C(C(=O)CCC(F)(F)F)C(C)(C)CC3)cc2)C=C1C(=O)CCC(F)(F)F`, in that order: 358 nm, 1090, 59296, 379 nm and 54%.
For `CC1(C)CCN(C(C)(C)C)C=C1C(=O)c1ccccc1`, in that order: 315 nm, 939, 25447, 342 nm and 76%.
For `CC1(C)CCN(C(C)(C)C)C=C1C(=O)c1c(F)cccc1F`, in that order: 312 nm, 1162, 35700, 331 nm and 85%.
In the case of `CC1(C)CCN(C(C)(C)C)C=C1C(=O)c1c(F)c(F)c(F)c(F)c1F`, the λmax in data set [2] (setting [3]) is reported as 314 nm. Moreover, the “E (1%, 1 cm)” value in data set [2] (setting [4]) was found to be 951. The compound also displayed a ε in data set [2] (setting [5]) of 34340. In data set [1] (Table 13B), the λcrit amounted to 333 nm. The “Photostability (%)” value in the data set “Photostability” is listed as 100%.
For `CC1(C)CCN(C(C)(C)C)C=C1C(=O)c1ccc(C(F)(F)F)cc1`, in that order: 315 nm, 782, 26531, 349 nm and 76%.
For `CCOC(=O)C(=O)C1=CN(C(C)(C)C)CCC1(C)C`, in that order: 311 nm, 998, 26668, 344 nm and 50%.
For `CCOC(=O)C(=O)C1=CN(c2ccccc2)CCC1(C)C`, in that order: 332 nm, 1210, 34743, 362 nm and 68%.
As for `CC1(C)CCN(C(C)(C)C)C=C1C(=O)c1ccccn1`, the λmax in data set [2] (setting [3]) is given as 317 nm. In addition, the “E (1%, 1 cm)” value in data set [2] (setting [4]) is listed as 635. The ε in data set [2] (setting [5]) is 17272. Besides, the λcrit in data set [1] (Table 13B) was 360 nm. For the same compound, the “Photostability (%)” value in “Photostability” is listed as 22%.
In the case of `Cc1cc(C)c(C(=O)C2=CN(C(C)(C)C)CCC2(C)C)c(C)c1`, the λmax in data set [2] (setting [3]) was determined as 311 nm. Further, in data set [2] (setting [4]), the “E (1%, 1 cm)” value stood at 1084. Also, the ε in data set [2] (setting [5]) is 33953. This compound also had a λcrit in data set [1] (Table 13B) of 326 nm. For the same compound, in “Photostability”, the “Photostability (%)” value came to 33%.
For `CC1(C)CCN(c2ccc(C(C)(C)C)cc2)C=C1C(=O)C(F)(F)F` [drawing 139], in data set [2] (Table 9), the “E (1%, 1 cm)” value is 1260. In addition, the λmax in data set [2] (setting [6]) was 337 nm. In addition, the ε in data set [2] (Table 9, in M-1 cm-1) is listed as 42723. In data set [1] (Table 9), the λcrit was 361 nm.
As for `COc1ccc(N2C=C(C(=O)C(F)(F)F)C(C)(C)CC2)cc1` [drawing 140], in data set [2] (Table 9), the “E (1%, 1 cm)” value was 774. In data set [2] (setting [6]), this compound gave a λmax of 339 nm. The ε in data set [2] (Table 9, in M-1 cm-1) is on record as 24235. The compound further returned a λcrit in data set [1] (Table 9) of 365 nm.
For `CN(C)c1ccc(N2C=C(C(=O)C(F)(F)F)C(C)(C)CC2)cc1` [drawing 141], in that order: 1004, 354 nm, 32744 and 385 nm.
As to `Cc1ccc(N2C=C(C(=O)C(F)(F)F)C(C)(C)CC2)cc1` [drawing 142], in data set [2] (Table 9), the “E (1%, 1 cm)” value came out at 1465. Moreover, the λmax in data set [2] (setting [6]) worked out at 337 nm. The same compound displayed a ε in data set [2] (Table 9, in M-1 cm-1) of 43513. The λcrit in data set [1] (Table 9) came out at 361 nm.
As to `CC1(C)CCN(c2cccc3ccccc23)C=C1C(=O)C(F)(F)F` [drawing 143], in data set [2] (Table 9), the “E (1%, 1 cm)” value is 985. Also, in data set [2] (setting [6]), the λmax was 325 nm. The same compound had a ε in data set [2] (Table 9, in M-1 cm-1) of 32790. The λcrit in data set [1] (Table 9) is on record as 348 nm.
Take `Cc1ccc(N2C=CC(C)(C)C(C(=O)C(F)(F)F)=C2)cc1` [drawing 151]: in data set [2] (Table 10), the “E (1%, 1 cm)” value is 505. The same compound yielded a λmax in data set [2] (setting [7]) of 388 nm. Also, the ε in data set [2] (Table 10, in M-1 cm-1) is listed as 14911. The compound further showed a λcrit in data set [1] (Table 10) of 393 nm.
Consider `Cc1cc(N2C=CC(C)(C)C=C2)n(C)n1` [drawing 152], for which the “E (1%, 1 cm)” value in data set [2] (Table 10) is 560. Moreover, the λmax in data set [2] (setting [7]) is 253 nm. Also, the ε in data set [2] (Table 10, in M-1 cm-1) amounted to 11371. In data set [1] (Table 10), the λcrit was 350 nm.
As for `Cc1nn(C)c(N2C=CC(C)(C)C=C2)c1C(=O)C(F)(F)F` [drawing 153], the “E (1%, 1 cm)” value in data set [2] (Table 10) amounted to 335. The λmax in data set [2] (setting [7]) was 253 nm. Also, the ε in data set [2] (Table 10, in M-1 cm-1) amounted to 10016. For the same compound, in data set [2], the “shoulder in the λmax column” value was 315 nm. For the same compound, the λcrit in data set [1] (Table 10) worked out at 363 nm.
As for `CC1(C)CCN(c2ccc(C(C)(C)C)cc2)C=C1C(=O)C(c1ccccc1)c1ccccc1` [drawing 157], the “E (1%, 1 cm)” value in data set [2] (Table 11) is 407. Moreover, in data set [2] (setting [8]), the λmax stood at 337 nm. The compound further had a ε in data set [2] (Table 11, in M-1 cm-1) of 17793. In data set [1] (Table 11), this compound showed a λcrit of 356 nm.
The like results for `CC1(C)CCN(c2ccc(C(C)(C)C)cc2)C=C1C(=O)C1c2ccccc2-c2ccccc21` [drawing 158] were, in that order, 707, 339 nm, 30745 and 358 nm.
For `CC1(C)CCN(c2ccc(C(C)(C)C)cc2)C=C1C(OC(=O)C1c2ccccc2-c2ccccc21)=C1c2ccccc2-c2ccccc21` [drawing 159], the “E (1%, 1 cm)” value in data set [2] (Table 11) came out at 105. Besides, in data set [2] (setting [8]), the λmax is 407 nm. For the same compound, the ε in data set [2] (Table 11, in M-1 cm-1) is 6635. This compound also registered a λcrit in data set [1] (Table 11) of 387 nm.
On to `CCC(=O)C1=C(c2ccccc2)N(CC(C)C)CCC1(C)C` [drawing 163], for which, in data set [2] (Table 12), the “E (1%, 1 cm)” value is recorded as 268 and the ε was 8000 M⁻¹ cm⁻¹. Besides, in data set [2] (setting [9]), the λmax was found to be 338 nm. This compound returned a λcrit in data set [1] (Table 12) of 365 nm.
For `CCC(=O)O/C(=C\C1=CC(C)(C)CCN1CC(C)C)CC` [drawing 165], in that order: 683, 20000 M⁻¹ cm⁻¹, 323 nm and 344 nm.
Turning to `CCC(=O)C1=CN(CC(C)C)C=CC1(C)C` [drawing 170], in data set [2] (Table 13A), the “E (1%, 1 cm)” value worked out at 362 and the ε is 8800 M⁻¹ cm⁻¹. For the same compound, in data set [2] (Table 13A, miscellaneous compounds), the λmax amounted to 366 nm. Further, in data set [1] (Table 13A), the λcrit came to 386 nm.
As to `CC(C)=CCCC(C)CC(=O)C1=CN(c2ccc(N3C=C(C(=O)CC(C)CCC=C(C)C)C(C)(C)CC3)cc2)CCC1(C)C` (stereo not shown) [drawing 212], the λmax in data set [2] (setting [3]) worked out at 359 nm. Besides, the “E (1%, 1 cm)” value in data set [2] (setting [4]) came out at 690. In data set [2] (setting [5]), the ε stood at 41400. For the same compound, the λcrit in data set [1] (Table 13B) is given as 379 nm.
The like results for `CC(C)=CCCC(C)CC(=O)C1=CN(c2ccc(N3C=C(C(=O)CC(C)CCC=C(C)C)C(C)(C)CC3)cc2)CCC1(C)C` (stereo not shown) [drawing 213] were, in that order, 358 nm, 550, 33000 and 378 nm.

The values are drawn from US10519111B2, “UV absorbing compounds, compositions comprising same and uses thereof” (CORAL SUNSCREEN PTY LTD, priority 2013, dated 2019).
